Where two headings read alike, the source gives them in different places.
Tests used:
[1] = test system: CYP3A1 mRNA; settings: AM group, oral ethanol 12 weeks; compared to NC and SC groups
Procedure: (§1) Sixty healthy male Sprague-Dawley rats (SD-2024-RAT-045, Beijing Vital River Laboratory Animal Technology Co., Ltd., Beijing, China) weighing 200–250 g were selected. The animals were housed under a 12-h light/dark cycle at a constant laboratory temperature of 22°C ± 2°C and relative humidity of 50% ± 10%, with access to ample food and water. Sixty rats were randomly assigned to four groups (fifteen rats per group): the normal control group (NC group), the sucrose solution group (SC group), the ethanol intake group (AM group), and the ethanol intake group with simultaneous overexpression of CYP2C11 and CYP2B6 (AM + oe-CYP2C11&CYP2B6 group). The NC group received an equal volume of normal saline daily via oral gavage. The SC group was given an 18% sucrose solution (w/v) and an equal volume of normal saline instead of ethanol. The AM group started with a 5% ethanol concentration, increasing by 5% weekly to 40% while maintaining a constant 18% sucrose concentration (v/v). The plasmid vector for gene overexpression, pCMV6-AC-GFP (LM-2069, LMAI Bio, Shanghai, China), was used to construct CYP2C11 and CYP2B6 plasmids, which were developed by Sangon Biotech (Shanghai, China). After constructing the AM rat model, overexpression plasmids were transfected into lentiviruses via tail vein injection ([Liu et al., 2020]). The lentivirus injections (5 × 10^7 IU/rat) were administered twice, with a minimum interval of 2 days between injections, starting on day 7 after the initiation of sucrose treatment ([Ma et al., 2020]).
(§2) The daily ethanol and sucrose feeding volumes were weight-adjusted for the rats, approximately 20 mL per kilogram of body weight, and continued for 12 weeks. Weekly monitoring of rat weight, observation and recording of appetite, general health status including activity level, fur condition, and behavioral changes were documented. Daily feeding amounts were meticulously recorded to accurately adjust ethanol and sucrose solution volumes. After 12 weeks, the rats were euthanized by cervical dislocation following unconsciousness induced by carbon dioxide (CO₂) inhalation. Liver tissues were dissected and stored at −80°C for subsequent histological and molecular biology analyses. Blood samples were collected, and serum was separated by centrifugation (3,000 rpm, 4°C, 15 min) and stored at −80°C for future use.
(§3) Total RNA was extracted from rat liver tissue using TRIzol reagent (15596026, Invitrogen, United States). cDNA was synthesized using the cDNA synthesis kit (RR036A, Takara, Japan). Specific gene expression was detected by combining the PCR master mix (206143, Qiagen, United States) with the Pikoreal 96 real-time PCR system (QPCR-96X, Thermo Scientific, United States). Quantitative PCR analysis was performed for CYP450 enzyme-related genes with the endogenous gene β-actin as a reference, and the relative mRNA expression levels were quantified by calculating the 2^−ΔΔCt values. All experiments were repeated three times.

[2] = test system: CYP2C11 mRNA; settings: AM group, oral ethanol 12 weeks; compared to NC and SC groups
Procedure: as §1, §2, §3

[3] = test system: CYP2B6 mRNA; settings: AM group, oral ethanol 12 weeks; compared to NC and SC groups
Procedure: as §1, §2, §3

[4] = test system: CYP2E1 mRNA; settings: AM group, oral ethanol 12 weeks; compared to NC and SC groups
Procedure: as §1, §2, §3

[5] = test system: CYP2D6 mRNA; settings: AM group, oral ethanol 12 weeks; compared to NC and SC groups
Procedure: as §1, §2, §3

[6] = test system: CYP1A2 mRNA; settings: AM group, oral ethanol 12 weeks; compared to NC and SC groups
Procedure: as §1, §2, §3

[7] = test system: CYP2E1; settings: AM group, oral ethanol 12 weeks; compared to NC and SC groups
Procedure: as §1, §2
(§4) Rat liver microsomes were isolated using differential centrifugation. Each sample was mixed with 50 mM Tris-HCl buffer, homogenized, and then centrifuged at 10,000 × g for 30 min. The supernatant was centrifuged at 100,000 × g for 1 h using a high-speed centrifuge (Himac CP100WX, Hitachi, Japan).
(§5) The activities of CYP1A2, CYP2B6, CYP2C19, CYP2C11, CYP2E1, CYP2D6, and CYP3A1 were quantitatively determined using specific labeled substrates and an NADPH generation system containing 100 mM potassium phosphate buffer, 1 mM NADP (N1630, Sigma, United States), 10 mmol/L G-6-P (G7877, Sigma, United States), 0.1 U/mL G-6-PDH (G8529, Sigma, United States), and 5 mM MgCl2. The NADPH generation system was added to microsomes (total protein concentration of 1 mg/mL) with a total volume of 190 μL. Each reaction system was supplemented with 10 μL of substrate.

[8] = test system: CYP2D6; settings: AM group, oral ethanol 12 weeks; compared to NC and SC groups
Procedure: as §1, §2, §4, §5

[9] = test system: CYP2C11; settings: AM group, oral ethanol 12 weeks
Procedure: as §1, §2, §4, §5

[10] = test system: CYP1A2; settings: AM group, oral ethanol 12 weeks; compared to NC and SC groups
Procedure: as §1, §2, §4, §5

[11] = test system: CYP2B6; settings: AM group, oral ethanol 12 weeks
Procedure: as §1, §2, §4, §5

[12] = test system: CYP3A1; settings: AM group, oral ethanol 12 weeks; compared to NC and SC groups
Procedure: as §1, §2, §4, §5

[13] = for AUC0-∞ / Cmax / T1/2 / T1/2 el / Tmax / MRT / AUC0-L∞: oral, serum, final dosing after 12 weeks, mean; for AUC0-L∞: time zero to last measurable concentration
Procedure: Rats were administered orally with the same doses of normal saline and ethanol in the NC, SC, and AM groups, following the same method. After 12 weeks, blood samples were collected from the rats at specified time points (0.5, 1, 2, 4, 6, 8, and 12 h post-dosing) during the final dosing. The blood samples were centrifuged to separate serum and then stored at −80°C for further use.
Utilizing liquid chromatography-mass spectrometry (LC-MS) technology, the concentrations of ethanol and its metabolites in serum samples were analyzed. Analyze the pharmacokinetic parameters of the drug, such as the maximum plasma concentration (Cmax), the mean residence time (MRT) of ethanol in the body, and the bioavailability of ethanol. Data processing was conducted using specialized software XCMS, involving peak identification, integration, and normalization. Multivariate statistical analyses were performed on metabolite data to reveal metabolic differences between groups, such as principal component analysis (PCA) and orthogonal partial least squares discriminant analysis (OPLS-DA). Metabolites were annotated and compared with known databases (HMDB, METLIN) to confirm their identities. Differences in pharmacokinetic parameters among the NC, SC, and AM groups were compared to evaluate the effects of alcohol exposure and CYP450 enzymes, aiming to identify metabolite variances.

[14] = SC group (sucrose solution) rats

For `CCO` [ethanol], the “CYP3A1 mRNA level in liver” value [1] was “significantly higher”, the “CYP2C11 mRNA level in liver” value [2] was “significantly lower” and the “CYP2B6 mRNA level in liver” value [3] was “significantly lower”. The “CYP2E1 mRNA level in liver” value [4] was “significantly higher”, the “CYP2D6 mRNA level in liver” value [5] was “significantly higher” and the “CYP1A2 mRNA level in liver” value [6] was “significantly higher”. For the same molecule, the “CYP2E1 enzyme activity in liver microsomes” value [7] was “significantly increased”, the “CYP2D6 enzyme activity in liver microsomes” value [8] was “significantly increased” and the “CYP2C11 enzyme activity in liver microsomes” value [9] was “notable decreases”. For the same molecule, the “CYP1A2 enzyme activity in liver microsomes” value [10] was “significantly increased”, the “CYP2B6 enzyme activity in liver microsomes” value [11] was “notable decreases” and the “CYP3A1 enzyme activity in liver microsomes” value [12] was “significantly increased”. The “AUC0-∞” value ([13]; AM group (alcohol intake) rats) was 29120 ng·h/mL, the Cmax ([13]; AM group (alcohol intake) rats) was 2375 ng/mL and the T1/2 ([13]; AM group (alcohol intake) rats) was 2.88 h. The T1/2 el ([13]; AM group (alcohol intake) rats) was 17.04 h, the Tmax ([13]; AM group (alcohol intake) rats) was 4.76 h and the MRT ([13]; AM group (alcohol intake) rats, p < 0.01 vs NC) was 24.48 h. For the same molecule, the “AUC0-L∞” value ([13]; AM group (alcohol intake) rats) was 27820 ng·h/mL, the “AUC0-∞” value ([13]; NC group (normal control) rats) was 22400 ng·h/mL and the Cmax ([13]; NC group (normal control) rats) was 1900 ng/mL. It also gave an MRT ([13]; NC group (normal control) rats) of 20.4 h, a T1/2 ([13]; NC group (normal control) rats) of 2.4 h and a T1/2 el ([13]; NC group (normal control) rats) of 14.2 h. The Tmax ([13]; NC group (normal control) rats) was 4.75 h, the “AUC0-L∞” value ([13]; NC group (normal control) rats) was 21400 ng·h/mL and the “Tmax, difference among the groups” value ([13]; NC, SC and AM groups, p > 0.05) was “no significant difference”. For the same molecule, the “AUC0-∞” value [13, 14] was 21300 ng·h/mL, the Cmax [13, 14] was 1890 ng/mL and the MRT [13, 14] was 19.8 h.
